Laboratory results from patent US8222260B2, “Substituted 6-anilinopurine derivatives as inhibitors of cytokinin oxidase/dehydrogenase and preparations containing these derivatives” (Univerzita Palackego V Olomouci, priority 2007, dated 2012).
“Also recorded” adds a separate entry of the source.

Legend:
[1] = system: Rat C6 glioma (ATCC No. CCL107); assay: Anti-inflammatory activity: isoproterenol-induced cAMP synthesis (ELISA); assay type: cell-based; details: cAMP after 30 min, induced by (−)-isoproterenol
Method: Anti-inflammatory activity of several of the substituted 6-anilinopurine derivatives of this invention was determined; kinetin was also evaluated as a control. Rat C6 glioma (ATCC No. CCL107) was cultivated in monolayer in serum-free chemically defined medium containing Ham's F10/minimal essential medium (1:1 v/v), 2 mM L-glutamine, 1% (v/v) minimal essential medium vitamins (100×), 1% (v/v) minimal essential medium nonessential amino acids (100×), 100 U/ml penicillin, […], and 30 nM sodium selenite. Incubation was performed at 37° C. in a 100% humidified atmosphere. The assays were performed in the logarithmic growth phase at a density of 2.5×10^5 cells/cm^2. Intracellular cAMP synthesis was induced by addition of 5 mM (−)-isoproterenol; various amounts of test compounds were added at the same time as the (−)-isoproterenol. After 30 min incubation, the cellular amount of cAMP was determined using ELISA (cAMP-enzyme immunoassay kit from Amersham). The I50 values were determined from the dose-response curve in duplicate.

[2] = system: T-lymphoblastic leukemia cell line CEM; assay: Calcein AM cytotoxicity assay; assay type: cell-based, human; details: Homo sapiens, 72 hours
[3] = system: cytokinin-dependent tobacco callus Nicotiana tabacum L. cv. Wisconsin 38; assay: Tobacco callus biotest (plant cell division); assay type: cell-based; details: at the concentration with highest activity, relative to 10^−5 M kinetin
[4] = system: Senescent human diploid fibroblasts SNF25; assay: Effect on senescent human diploid fibroblasts (cell number); assay type: cell-based; details: 0-12.5 μM, days 7 and 14, SNF25 passage 53
Method: Senescent human diploid fibroblasts SNF25 (passage 53) were seeded in 24-well plate (10.000 cells/well). The cultivation medium (DMEM containing 5 g/l glucose, 2 mM glutamin, 100 U/ml penicillin, […] streptomycin and 10% fetal calf serum) was removed and replaced with the cultivation medium containing test compound in concentration range of 0-12.5 μM. Each concentration was tested in triplicate. The cell numbers were determined on days 7 and 14.

[5] = system: erytroid leukemia cell line K-562; assay: Calcein AM cytotoxicity assay; assay type: cell-based, human; details: Homo sapiens, K562, 72 hours
Outline: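 Cells seeded at 2.500-30.000 per well, pre-incubated 24 h, then exposed 72 h at 37 °C to six 3-fold dilutions (top 166.6 μM), in triplicate. Calcein AM added to 1 μg/ml for 1 h; fluorescence gives growth inhibition, GI50 taken from dose-response curves.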

| SMILES | Effect (anti-inflammatory activity) [1] | GI50 [2] [µM] | Activity (%) [10^−5 mol · l^−1 K = 100%] [3] [%] | cell number (cell survival) [4] | GI50 [5] [µM] |
| --- | --- | --- | --- | --- | --- |
| c1coc(CNc2ncnc3nc[nH]c23)c1 [Kinetin, 6-furfurylaminopurine, reference compound] | inactive; also recorded: Not active | 155 | 100 |  |  |
| Fc1cccc(Nc2nc(S)nc3[nH]cnc23)c1 [Compound 83] |  |  | 102.5 |  |  |
| Clc1nc(Nc2ccccc2)c2[nH]cnc2n1 [Compound 1, 2-Chloro-6-anilinopurine] |  | > 167 |  | does not exert significant negative effect on cell survival |  |
| Fc1cccc(Nc2nc(Cl)nc3nc[nH]c23)c1 [Compound 6, 2-Chloro-6-(3-fluoroanilino)purine] |  |  | 119.7 |  | > 167 |
| COc1cccc(Nc2nc(Cl)nc3nc[nH]c23)c1 [Compound 12, 2-Chloro-6-(3-methoxyanilino)purine] |  |  | 122 |  |  |
| Oc1cccc(Nc2nc(F)nc3[nH]cnc23)c1 [Compound 48] |  |  | 104.2 |  | > 167 |
| Fc1nc(Nc2ccccc2)c2nc[nH]c2n1 [Compound 40] |  | > 167 | 108.1 |  |  |
| Fc1nc(Nc2cccc(Cl)c2)c2nc[nH]c2n1 [Compound 42] |  | > 167 | 121 |  |  |
| COc1cccc(Nc2nc(F)nc3nc[nH]c23)c1 [Compound 51, 2-Fluoro-6-(3-methoxyanilino)purine] |  |  | 120.5 |  |  |
| Oc1cccc(Nc2nc(Cl)nc3nc[nH]c23)c1 [Compound 9, 2-Chloro-6-(3-hydroxyanilino)purine] |  |  | 116.2 |  |  |
| Clc1cccc(Nc2nc(Cl)nc3nc[nH]c23)c1 [Compound 3, 2-Chloro-6-(3-chloroanilino)purine] |  | > 167 | 110 |  |  |
| Clc1ccc(Nc2nc(Cl)nc3[nH]cnc23)cc1 [Compound 4] |  | > 167 | 102 |  | > 167 |
